# Data as given in ChEMBL document CHEMBL1127222, “Protection of the peptide bond against -chymotrypsin by the prodrug approach” (Bioorg Med Chem Lett, 1993).
# Tests used:
# Assay type in all cases: ADME
# [1] = Half life period in buffer solution at pH 7.4: found to be stable
# [2] = Half life period in the presence of alpha-chymotrypsin at the concentration of 0.25 mg/ml
# [3] = Half life period in the presence of alpha-chymotrypsin at the concentration of 0.5 mg/ml
# [4] = Half life period in the presence of alpha-chymotrypsin at the concentration of 1.0 mg/mL
# [5] = Half life period in buffer solution at pH 7.4
half-life [2],half-life [3],half-life [4],half-life [5],Structure (SMILES),T1/2 [1]
0.55 h,0.583 h,0.533 h,0.633 h,CC(=O)N(CO)C(Cc1ccccc1)C(N)=O (stereo unspecified),–
9.6 h,4.9 h,2.3 h,–,CC(=O)NC(Cc1ccccc1)C(N)=O (stereo unspecified),Stable
1.08 h,1.07 h,1.05 h,1.05 h,CC(=O)N(CO)C(Cc1ccccc1)C(=O)NCc1ccccc1 (stereo unspecified),–

Structure (SMILES),half-life [2],half-life [3],half-life [4],half-life [5],T1/2 [1]
CC(=O)NC(Cc1ccccc1)C(=O)NCc1ccccc1 (stereo unspecified),15 h,7.5 h,3.9 h,–,Stable
